In patent US20260373138A1, “COMPOUNDS WITH ANTIFUNGAL PROPERTIES” (priority 2023, published 2026):

Key:
[1] = system: Aspergillus fumigatus SrbA pathway; conditions: phenotype of SrbA pathway inhibition, previously published; cited from earlier work
[2] = system: A. fumigatus CEA10 reference strain; test: Fluconazole potentiator screen: MIC by CLSI microbroth dilution with and without fluconazole; type: cell-based, Aspergillus fumigatus; conditions: for MIC: Aspergillus fumigatus, read-out: MIC (ug/mL) (−) Fluc; for MIC / MIC (ug/mL) (+) Fluc: 18 h; for MIC (ug/mL) (+) Fluc: with 32 μg/ml fluconazole, normoxia, GMM, 37 °C

SMILES: OC(Cn1cncn1)(Cn1cncn1)c1ccc(F)cc1F [fluconazole]
- MIC to fluconazole [1]: < 8 µg/mL

SMILES: O=S(=O)(c1ccccn1)N1CCC2(CC1)CC(CCOc1ccncc1)CCO2 (stereo not shown) [MBX-7873]
- MIC [2]: > 16 µg/mL
- MIC (ug/mL) (+) Fluc [2]: >16 µg/mL

SMILES: CN1CCc2cc(CC3CCN(S(=O)(=O)c4ccc(F)cc4)CC3)ccc2C1 [MBX-8700]
- MIC [2]: 8.97 µg/mL
- MIC (ug/mL) (+) Fluc [2]: 1.26 µg/mL

SMILES: O=S(=O)(NC1CCN(Cc2ccc(CN3CCOCC3)cc2)CC1)c1ccc(F)cc1 [MBX-8284]
- MIC [2]: > 22 µg/mL
- MIC (ug/mL) (+) Fluc [2]: >22 µg/mL

SMILES: O=S(=O)(c1ccc(F)cc1)N1CCC2(CC1)CC(CCOc1ccncc1)CCO2 (stereo not shown) [MBX-7871]
- MIC [2]: 8.69 µg/mL
- MIC (ug/mL) (+) Fluc [2]: 1.09 µg/mL

SMILES: O=C(c1ccc2scnc2c1)N1CCC(Cc2ccc(COc3ccncc3)cc2)CC1 [MBX-8097]
- MIC [2]: > 22 µg/mL
- MIC (ug/mL) (+) Fluc [2]: >22 µg/mL

SMILES: CC(C)(O)c1ccc(C(=O)N2CCC(Cc3ccc(COc4ccncc4)cc3)CC2)cc1 [MBX-8139]
- MIC [2]: > 22 µg/mL
- MIC (ug/mL) (+) Fluc [2]: >22 µg/mL

SMILES: O=C(c1ccsc1)N1CCC(Cc2cccc(COc3ccncc3)c2)CC1 [MBX-8029]
- MIC [2]: 27 µg/mL
- MIC (ug/mL) (+) Fluc [2]: 19.00 µg/mL

SMILES: O=C(c1ccsc1)N1CCC(Cc2ccc(COc3ccncn3)cc2)CC1 [MBX-8529]
- MIC [2]: 9.84 µg/mL
- MIC (ug/mL) (+) Fluc [2]: >15 µg/mL

SMILES: O=C(c1cscn1)N1CCC(Cc2ccc(COc3ccncc3)cc2)CC1 [MBX-8099]
- MIC [2]: 7.81 µg/mL
- loss in potentiating the fluconazole ([2]; analogs of MBX-7591): more than 4 fold
- MIC (ug/mL) (+) Fluc [2]: 3.10 µg/mL

SMILES: O=C(c1cccnc1)N1CCC(Cc2ccc(COc3ccncc3)cc2)CC1 [MBX-7730]
- MIC [2]: 15 µg/mL
- potency / potentiation of fluconazole (in words) ([2]; structure-activity statements, fluconazole potentiator screen): did not result in appreciable increase in potency
- MIC (ug/mL) (+) Fluc [2]: 7.70 µg/mL

SMILES: O=C(c1ccsc1)N1CC[C@@H](Cc2ccc(COc3ccncc3)cc2)C1 [MBX-8431]
- MIC [2]: 3.78 µg/mL
- MIC (ug/mL) (+) Fluc [2]: 1.14 µg/mL

SMILES: O=S(=O)(c1ccc(C(F)(F)F)cc1)N1CCC(Cc2ccc(CN3CCOCC3)cc2)CC1 [MBX-8224]
- MIC [2]: 1.1 µg/mL
- MIC (ug/mL) (+) Fluc [2]: 0.50 µg/mL

SMILES: Nc1cc(OCc2ccc(CC3CCN(C(=O)c4ccsc4)CC3)cc2)ccn1 [MBX-8226]
- MIC [2]: 20 µg/mL
- MIC (ug/mL) (+) Fluc [2]: 11.00 µg/mL

SMILES: O=S(=O)(c1ccc(F)cc1)N1CCC(Cc2ccc(CN3CCOCC3)c(F)c2)CC1 [MBX-8356]
- MIC [2]: 0.6 µg/mL
- MIC (ug/mL) (+) Fluc [2]: 0.09 µg/mL
